test system: M. catarrhalis A894; assay: Minimal inhibitory concentration (MIC), microdilution method in cation-adjusted Mueller-Hinton Broth (CLSI M7-A7); format: cell-based; conditions: Moraxella catarrhalis, strain A894
Method: Minimal inhibitory concentrations (MICs; mg/1) were determined in cation-adjusted Mueller-Hinton Broth by a microdilution method following the description given in “Methods for Dilution Antimicrobial Susceptibility Tests for Bacteria that Grow Aerobically”, Approved standard, 7th ed., Clinical and Laboratory Standards Institute (CLSI) Document M7-A7, Wayne, Pa., USA, 2006.

Q: For O=C1COc2ccc(N3C[C@@H](CCCNC4Cn5c(=O)ccc6ccc(F)c4c65)OC3=O)cc2N1 (mixture of isomers) [Example 12, (1RS)-9-fluoro-1-{3-[(R)-2-oxo-3-(3-oxo-3,4-dihydro-2H-benzo[1,4]oxazin-6-yl)-oxazolidin-5-yl]-propylamino}-1,2-dihydro-pyrrolo[3,2,1-ij]quinolin-4-one], which MIC is on record?
A: ≤ 0.031 µg/mL

Q: How did the MIC turn out when O=C1CSc2ccc(N3C[C@@H](CCNCC4Cn5c(=O)ccc6ccc(F)c4c65)OC3=O)nc2N1 (mixture of isomers) [Example 197, (RS)-9-fluoro-1-({2-[(R)-2-oxo-3-(3-oxo-3,4-dihydro-2H-pyrido[3,2-b][1,4]thiazin-6-yl)-oxazolidin-5-yl]-ethylamino}-methyl)-1,2-dihydro-pyrrolo[3,2,1-ij]quinolin-4-one] was run?
A: ≤ 0.031 µg/mL

Q: For O=C1CSc2ccc(N3C[C@@H](CCNCC4Cn5c(=O)ccc6ncc(F)c4c65)OC3=O)cc2N1 (mixture of isomers) [Example 28, (4RS)-3-fluoro-4-({2-[(R)-2-oxo-3-(3-oxo-3,4-dihydro-2H-benzo[1,4]thiazin-6-yl)-oxazolidin-5-yl]-ethylamino}-methyl)-4,5-dihydro-pyrrolo[3,2,1-de][1,5]naphthyridin-7-one], which MIC is on record?
A: ≤ 0.031 µg/mL

Q: With O=C1COc2ccc(N3C[C@@H](CCCNC4Cn5c(=O)ccc6ncc(F)c4c65)OC3=O)cc2N1 (mixture of isomers) [Example 95, (RS)-3-fluoro-4-{3-[(R)-2-oxo-3-(3-oxo-3,4-dihydro-2H-benzo[1,4]oxazin-6-yl)-oxazolidin-5-yl]-propylamino}-4,5-dihydro-pyrrolo[3,2,1-de][1,5]naphthyridin-7-one] as the compound, how does the MIC read?
A: ≤ 0.031 µg/mL

Q: How did the MIC turn out when O=C1CSc2ccc(N3C[C@H](CCN[C@@H]4Cn5c(=O)ccc6cccc4c65)OC3=O)cc2N1 [Example 88, (S)-1-{2-[(S)-2-oxo-3-(3-oxo-3,4-dihydro-2H-benzo[1,4]thiazin-6-yl)-oxazolidin-5-yl]-ethylamino}-1,2-dihydro-pyrrolo[3,2,1-ij]quinolin-4-one] was run?
A: ≤ 0.031 µg/mL

Q: Which MIC does the source give for O=C1CSc2ccc(N3C[C@H](CCCN[C@@H]4Cn5c(=O)ccc6ncc(F)c4c65)OC3=O)nc2N1 [Example 150, (S)-3-fluoro-4-{3-[(S)-2-oxo-3-(3-oxo-3,4-dihydro-2H-pyrido[3,2-b][1,4]thiazin-6-yl)-oxazolidin-5-yl]-propylamino}-4,5-dihydro-pyrrolo[3,2,1-de][1,5]naphthyridin-7-one] here?
A: ≤ 0.031 µg/mL

Q: Which MIC does the source give for O=C1COc2ccc(N3C[C@H](CCCN[C@H]4Cn5c(=O)ccc6ncc(F)c4c65)OC3=O)nc2N1 [Example 144, (R)-3-fluoro-4-{3-[(S)-2-oxo-3-(3-oxo-3,4-dihydro-2H-pyrido[3,2-b][1,4]oxazin-6-yl)-oxazolidin-5-yl]-propylamino}-4,5-dihydro-pyrrolo[3,2,1-de][1,5]naphthyridin-7-one] here?
A: ≤ 0.031 µg/mL

Q: How did the MIC turn out when C#Cc1ccc2ccc(=O)n3c2c1C(NCCC[C@@H]1CN(c2ccc4c(c2)NC(=O)CS4)C(=O)O1)C3 (mixture of isomers) [Example 180, (RS)-9-ethynyl-1-{3-[(R)-2-oxo-3-(3-oxo-3,4-dihydro-2H-benzo[1,4]thiazin-6-yl)-oxazolidin-5-yl]-propylamino}-1,2-dihydro-pyrrolo[3,2,1-ij]quinolin-4-one] was run?
A: ≤ 0.031 µg/mL

Q: Which MIC does the source give for CCc1ccc2ccc(=O)n3c2c1C(NCCC[C@@H]1CN(c2ccc4c(c2)NC(=O)CS4)C(=O)O1)C3 (mixture of isomers) [Example 179, (RS)-9-ethyl-1-{3-[(R)-2-oxo-3-(3-oxo-3,4-dihydro-2H-benzo[1,4]thiazin-6-yl)-oxazolidin-5-yl]-propylamino}-1,2-dihydro-pyrrolo[3,2,1-ij]quinolin-4-one] here?
A: ≤ 0.031 µg/mL

Q: For O=C1CSc2ccc(N3C[C@@H](CCCN[C@@H]4Cn5c(=O)ccc6ccc(F)c4c65)OC3=O)cc2N1 [Example 128, (S)-9-fluoro-1-{3-[(R)-2-oxo-3-(3-oxo-3,4-dihydro-2H-benzo[1,4]thiazin-6-yl)-oxazolidin-5-yl]-propylamino}-1,2-dihydro-pyrrolo[3,2,1-ij]quinolin-4-one], which MIC is on record?
A: ≤ 0.031 µg/mL

Q: For O=C1COc2ccc(N3C[C@H](CCCN[C@@H]4Cn5c(=O)cnc6ccc(F)c4c65)OC3=O)cc2N1 [Example 80, (S)-7-fluoro-6-{3-[(S)-2-oxo-3-(3-oxo-3,4-dihydro-2H-benzo[1,4]oxazin-6-yl)-oxazolidin-5-yl]-propylamino}-5,6-dihydro-pyrrolo[1,2,3-de]quinoxalin-3-one], which MIC is on record?
A: ≤ 0.031 µg/mL

Q: Which MIC does the source give for O=C1CSc2ccc(N3C[C@H](CCNCC4Cn5c(=O)ccc6cccc4c65)OC3=O)nc2N1 (mixture of isomers) [Example 176, (RS)-1-({2-[(S)-2-oxo-3-(3-oxo-3,4-dihydro-2H-pyrido[3,2-b][1,4]thiazin-6-yl)-oxazolidin-5-yl]-ethylamino}-methyl)-1,2-dihydro-pyrrolo[3,2,1-ij]quinolin-4-one] here?
A: ≤ 0.031 µg/mL

Q: For O=C1COc2ccc(N3C[C@H](CCNCC4CN5C(=O)CCc6ccc(F)c4c65)OC3=O)cc2N1 (mixture of isomers) [Example 187, (RS)-9-fluoro-1-({2-[(S)-2-oxo-3-(3-oxo-3,4-dihydro-2H-benzo[1,4]oxazin-6-yl)-oxazolidin-5-yl]-ethylamino}-methyl)-1,2,5,6-tetrahydro-pyrrolo[3,2,1-ij]quinolin-4-one], which MIC is on record?
A: ≤ 0.031 µg/mL

Q: Which MIC does the source give for O=C1CSc2ccc(N3C[C@@H](CCCN[C@@H]4Cn5c(=O)cnc6ccc(F)c4c65)OC3=O)cc2N1 [Example 58, (S)-7-fluoro-6-{3-[(R)-2-oxo-3-(3-oxo-3,4-dihydro-2H-benzo[1,4]thiazin-6-yl)-oxazolidin-5-yl]-propylamino}-5,6-dihydro-pyrrolo[1,2,3-de]quinoxalin-3-one] here?
A: ≤ 0.031 µg/mL

Q: How did the MIC turn out when O=C1COc2ccc(N3C[C@@H](CCCNC4Cn5c(=O)cnc6cccc4c65)OC3=O)cc2N1 (mixture of isomers) [Example 21, (6RS)-6-{3-[(R)-2-oxo-3-(3-oxo-3,4-dihydro-2H-benzo[1,4]oxazin-6-yl)-oxazolidin-5-yl]-propylamino}-5,6-dihydro-pyrrolo[1,2,3-de]quinoxalin-3-one] was run?
A: ≤ 0.031 µg/mL

Q: O=C1CSc2ccc(N3C[C@@H](CCCNC[C@@H]4Cn5c(=O)ccc6cccc4c65)OC3=O)cc2N1 (racemic) [Example 83, (RS)-1-({3-[(RS)-2-oxo-3-(3-oxo-3,4-dihydro-2H-benzo[1,4]thiazin-6-yl)-oxazolidin-5-yl]-propylamino}-methyl)-1,2-dihydro-pyrrolo[3,2,1-ij]quinolin-4-one] was tested. Which MIC did it give?
A: ≤ 0.031 µg/mL

Q: How did the MIC turn out when O=C1COc2ccc(N3C[C@H](CCCN[C@H]4Cn5c(=O)ccc6ncc(F)c4c65)OC3=O)cc2N1 [Example 141, (R)-3-fluoro-4-{3-[(S)-2-oxo-3-(3-oxo-3,4-dihydro-2H-benzo[1,4]oxazin-6-yl)-oxazolidin-5-yl]-propylamino}-4,5-dihydro-pyrrolo[3,2,1-de][1,5]naphthyridin-7-one] was run?
A: ≤ 0.031 µg/mL

same assay, conditions: strain A894

Q: “(1R,2S)-2-methyl-1-{3-[(S)-2-oxo-3-(3-oxo-3,4-dihydro-2H-benzo[1,4]thiazin-6-yl)-oxazolidin-5-yl]-propylamino}-1,2-dihydro-pyrrolo[3,2,1-ij]quinolin-4-one and (1S,2R)-2-methyl-1-{3-[(S)-2-oxo-3-(3-oxo-3,4-dihydro-2H-benzo[1,4]thiazin-6-yl)-oxazolidin-5-yl]-propylamino}-1,2-dihydro-pyrrolo[3,2,1-ij]quinolin-4-one [Example 167]” was tested. Which “MIC for M. catarrhalis A894” value did it give?
A: ≦0.031 mg/l
